Results on 17 molecules are retold here after US11034952B2, “Aptamer methods and compositions” (The Trustees of Columbia University in the City of New York, priority 2013, dated 2021).

Series [1] relates to amino acid complexed with Cp*Rh(III). Briefly: amino acid selectivity of Cp*Rh(III)-amino acid binding aptamers in sensor form. The note with it: Cp*Rh(III) derivatization agent. The source says: A series of aptamers were formed having an unbound nucleic acid pocket (see e.g., FIG. 7B-G).
An exemplary motif having a plurality of unpaired bases forming a pocket that binds a metal complex or an amino acid target molecule is shown in FIG. 8A. […]

A short description of series [2]: amino acid selectivity of HPheA104 aptamer sensor (RFU vs amino acid concentration). The series is classed as binding. On the procedure: (§1) FIG. 12A-FIG. 12D is a series of aptamer structures and scatter and line plots showing use thereof.
This aptamer sensor mixture (not including Cp*Rh) was incubated with concentrations of amino acids (Phe, Trp, Tyr) and fluorescence (RFU) measured (see e.g., FIG. 12D).

A short description of series [3]: oral phenylalanine load, Phe concentration in serum from capillary blood detected by aptamer. The series is classed as in vivo. The note with it: 100 mg per kg body weight by mouth, 1 hr, FIG. 11B. The protocol: FIG. 11A-FIG. 11B is a chemical structure of PACp*Rh01 aptamer (SEQ ID NO: 53) reactive for Phe and cross-reactive for Trp and a scatter and line plot showing use thereof. FIG. 11A depicts the structure of an aptamer reactive for Phe and cross-reactive for Trp. FIG. 11B is a scatter and line plot showing aptamer detected Phe concentration (μM) as a function of time (hr) in serum samples from capillary blood of subject two and subject three having an oral load of 100 mg/kg at time zero.
This aptamer was used to detected Phe concentration (μM) as a function of time (hr) in serum samples from capillary blood of subject one and subject three that took 100 mg of phenylanine per kg body weight by mouth at time zero (see e.g., FIG. 11B). […] Every hour, blood was measured for the phenylalanine concentration. In a healthy subject, the enzymes that break down phenylalanine (e.g., phenylalanine hydroxylase (PAH) or BH4-cofactor, alone or together) are stimulated and break down phenylalanine resulting in decreased concentration (see 2-5 hr in FIG. 11B).

Series [4] has as its system phenylalanine complexed with Cu(II). Description: amino acid selectivity of Cu(II) phenylalanine aptamers (RFU vs amino acid concentration). It is filed as binding. The note with it: for amino acid selectivity: Cu(II). The protocol: as §1
This aptamer sensor mixture (not including Cp*Rh) was incubated with concentrations of amino acids (Phe, Tyr, Trp, Gly) and fluorescence (RFU) measured (see e.g., FIG. 12B).

For series [5] the following is noted: read-out: Kd for glucose; cited from earlier work.

Take “CTCTCGGGACGACGGCGGGGAAACAGCTGCAAAATGTGGAGTAGTCGTCCC (Cp*Rh(III)-citrulline complex, further chemistry not given here) [CIT30N02_Cp*Rh, citrulline-Cp*Rh(III) complex aptamer]”: in series [1], the amino acid selectivity result is on record as “citrulline non-selective”. Still for that read-out and setting: as for “CTCTCGGGACGACGGGTCAGTTAGACCGTGAGGCTTCCGAATAGTCGTCCC (aptamer; listed as DNA, chemistry not fully specified) [GLYHW-Cp*Rh06, glycine-Cp*Rh(III) complex aptamer]”, the entry is “Gly non-specific”; as for “CTCTCGGGACGACGGCCCGATCTCAGAGTAGTCGTCCC (listed as DNA, chemistry not fully specified) [Tyr-Cp*Rh(38nt), tyrosine-Cp*Rh(III) complex aptamer]”, “Tyr selective”. As to “CTCTCGGGACGACCGCGTTTCCCAAGAAAGCAAGTTTTGGTTGGTCGTCCC (aptamer; listed as DNA, chemistry not fully specified) [HPheA104]”, the amino acid selectivity result in series [2] is reported as “Phe reactive”. The “specificity among phenylalanine, tryptophan, tyrosine” value in series [2] (sensor mixture not including Cp*Rh, FIG. 12D) is on record as “Phe specificity is demonstrated”. Turning to “CTCTCGGGACGACCGCGGTAGTCTTAACCTAAAGCGGTGTCAGGTCGTCCC (listed as DNA, chemistry not fully specified) [HTrp03, tryptophan-Cp*Rh(III) complex aptamer]”, in series [1], the amino acid selectivity entry is given as “Trp selective”. Take “CTCTCGGGACGACGGGCTAGGCGTGGGTGTAAAGGCACAGGGGTCGTCCC (listed as DNA, chemistry not fully specified) [Gly-Cp sensor, glycine-Cp*Rh(III) complex aptamer]”: the amino acid selectivity entry in series [1] was “Gly selective”.

Regarding “CTCTCGGGACGACGGGCCACGTTTTCCAGGTACTTTCTAAGGGGTCGTCCC (aptamer; listed as DNA, chemistry not fully specified) [AspaCp03, asparagine-Cp*Rh(III) complex aptamer]”, the amino acid selectivity result in series [1] is on record as “Asn selective”. Same read-out and setting: as for “CTCTCGGGACGACGACACGGGCGTCCCTTCACAAGGAGAGTGAGTCGTCCC (listed as DNA, chemistry not fully specified) [ARG01_Cp, arginine-Cp*Rh(III) complex aptamer]”, the entry is “Arg selective”.

Regarding `N[C@@H](Cc1ccccc1)C(=O)O` [phenylalanine], in series [3], the “phenylalanine concentration in blood” value was “rises significantly”. For the molecule “CTCTCGGGACGACGGACGCTAATCTTACAAGGGCGTAGTGTATGTCGTCCC (listed as DNA, chemistry not fully specified) [PACp*Rh01, phenylalanine-Cp*Rh(III) complex aptamer]”, the amino acid selectivity result in series [1] is “Phe cross-reactive Trp”. “CTCTCGGGACGACGGCGGGCGCGTATGTATATCATAAGGTGTAGTCGTCCC (aptamer; listed as DNA, chemistry not fully specified) [LeuCp17, leucine-Cp*Rh(III) complex aptamer]”: in series [1], the amino acid selectivity result is on record as “selective for Leu over Ile”. In the case of “CTCTCGGGACGACGAGGCTGGATGCATTCGCCGGATGTTCGATGTCGTCCC (listed as DNA, chemistry not fully specified) [Cu(II)_Phe01, phenylalanine-Cu(II) complex aptamer]”, the amino acid selectivity result in series [4] was “Phe reactive”. Also, the “specificity among phenylalanine, tyrosine, tryptophan, glycine” value in series [4] (sensor mixture not including Cp*Rh, FIG. 12B) is recorded as “Phe specificity is demonstrated”. On to “CTCTCGGGACGACGGGTGGGAGCGATTCGAGCTACTCAGGTATGTCGTCCC (aptamer; listed as DNA, chemistry not fully specified) [LysCp*Rh18, lysine-Cp*Rh(III) complex aptamer]”, for which the amino acid selectivity result in series [1] is reported as “Lys non-selective”. For `CN(Cc1ccccc1B(O)O)Cc1c2ccccc2c(CN(C)Cc2ccccc2B(O)O)c2ccccc12` [bis-boronic receptor], the Kd in series [5] was approximately 500 µM. For “CTCTCGGGACGACGCGGTGTGGATCCCTCGTAGAAGGAGTAGTGTCGTCCC (aptamer; listed as DNA, chemistry not fully specified) [LysCp05, lysine-Cp*Rh(III) complex aptamer]”, in series [1], the amino acid selectivity result is listed as “Lys selective”. “CTCTCGGGACGACAGGTCCCTTTCGTAGATCGAGGAAGTATGTCGTCCC (listed as DNA, chemistry not fully specified) [Cu(II)-Phe10_49 nt, phenylalanine-Cu(II) complex aptamer]”: the amino acid selectivity result in series [4] is reported as “Phe cross-reactive Trp”. In the case of “CTCTCGGGACGACGGCGGGTGAATGCACACTTAGCAGAGAGTAGTCGTCCC (aptamer; listed as DNA, chemistry not fully specified) [GlutaCp02, glutamine-Cp*Rh(III) complex aptamer]”, in series [1], the amino acid selectivity result was “Gln selective”.

A word on the Kd: it is the concentration at which binding is half-saturated.
